Patent publication US8110703B2, “Retinoid derivative and pharmaceutical composition and use thereof” (Anhui Medical University, priority 2008, dated 2012)
Marks after values point to notes of the source that are not given here.

Assays:
[1] = tested on: human acute promyelocytic leukaemia; details: cited from earlier work
[2] = tested on: A549 lung cancer cells; experiment: MTT cell growth and proliferation experiment, A549; format: cell-based; parameters: key to Inhibition Rate: (control OD570 − test OD570)/control OD570, as fraction; details: A549, MTT time gradient, 10 ug/ml; for Inhibition Rate: fraction
Procedure: (§1) 1.1 Reagents 12 retinoic acid derivatives with the final concentrations of 1 ug/ml, 5 ug/ml and 10 ug/ml are synthesized by the Pharmaceutical College of Anhui Medical University using DMSO and anhydrous ethanol, separately packaged for storage at −20° C. and kept out of the light when used, and the final concentration of DMSO is less than 0.1%. MTT is purchased from Sigma Corp. The Coulter DNA detection kit is presented by the Central Lab of Anhui Provincial Hospital. AFP and γ-GT are provided by the Clinical Lab of No. 105 Hospital of PLA. Apoptosis-Hoechst staining kit is purchased from Beyotime Company.
(§2) 1.2 Cell Culture A549, and HpeG2 cells are stored by our lab. Cell growth condition: DMEM (from GIBICO Company) culture solution is added with 10% of calf serum (purchased from the Hangzhou Sijiqing Biological Engineering Material Co., Ltd.) to culture in a cell culture incubator (37° C., 5% CO2) with saturated humidity.
(§3) 1.3 Cell Growth and Proliferation Experiments MTT process is used. Cells in the logarithmic phase are picked and seeded on a 96-hole culture board with a cell concentration of 5×10^7/L. Each hole of the board is 200 ul. The next day after the adherence, the original solution is discarded, and the culture solution is added. The cells are divided into 1 ug/ml retinoic acid derivative groups, 5 ug/ml retinoic acid derivative groups, 10 ug/ml retinoic acid derivative groups, blank control groups, cell control groups, solvent control groups (1‰ DMSO and anhydrous ethanol) (17 in total) according to the concentrations thereof, incubated for 3d, added with MTT (5 g/L) of 20 ul/hole for incubation at 37° C. for 4 h. The original solution is carefully discarded and dried, and DMSO of 20 ul/hole is added to dissolve crystals, followed by vibrating for 10 min and determining the OD value at 570 nm. Each concentration is corresponding to 5 holes, and each group calculates the average of 3 experiments to calculate the inhibition rate to the cell growth according to the optical density (OD) average of each hole in each group and the following equation: inhibition rate %=(control hole OD570−experimental hole OD570)/control hole OD5700*100%. The process above is repeated for three times. The second experiment takes the maximum concentration (10 […]) for culture respectively for 1, 2, 3 and 7 days and repeat for three times.

[3] = tested on: liver cancer HepG2 cells; experiment: MTT cell growth and proliferation experiment, HepG2; format: cell-based; parameters: key to Inhibition Rate: (control OD570 − test OD570)/control OD570, as fraction; details: for Inhibition Rate: fraction
Procedure: as §1, §2, §3

[4] = tested on: A549 cells; experiment: Differentiation index: CEA secretory volume of A549 cells; format: cell-based; details: A549 culture supernatant, 10 ug/ml, 3 d, DMSO
Procedure: 1.6 Detection of Differentiation Index The cultured A549 cells are randomly divided into 6 10 μg/ml drug groups, cell control groups, solvent control groups (DMSO and ethanol) and 10 μg/ml fenretinide control groups (11 in total). The control groups and drug groups are cultured for 3 days to collect respective 3 tubes of cell culture solutions which are centrifugated at a speed of 4000 r/min for 5 min to take the supernatant and detect the CEA content of the kit by using enzyme kinetics and CEA detection.

[5] = tested on: HepG2 cells; experiment: AFP secretory volume of HepG2 cells; format: cell-based; details: for effects on AFP secretory volume (statistics, in words): HepG2, compared with the control groups, P less than 0.05; for AFP: HepG2 cells, DMSO
[6] = tested on: HepG2 cells; experiment: γ-GT specific activity of HepG2 cells; format: cell-based; details: DMSO
[7] = tested on: A549 cells; experiment: Cell cycle and apoptosis by flow cytometry, A549; format: cell-based; details: A549, 10 μg/ml, 3 days, PI flow cytometry
Procedure: 1.4 Detection of Cell Cycle and Apoptosis by Flow Cytometry A549 cells in the logarithmic phase are collected, regulated with the concentrations thereof to 8×10^7/L, inoculated in a 6-hole board, cultured in an incubator (37° C. and 5% CO2). After the cells are adhered, the culture solution is discarded, and a culture solution having drugs with the corresponding concentrations is added and divided into 10 μg/ml drug groups, 10 μg/ml fenretinide groups, cell control groups, solvent control groups (1‰ DMSO and anhydrous ethanol) (11 in total). After 3 days, each group of cells is normally digested, collected, blown into single cell suspension, washed by cold PBS twice, and re-suspend by 10 μl PBS. Fixing and member breaking agents and a PI staining solution are added according to the Coulter DNA detection kit and reacted with one another at the room temperature and out of light for 30 min for machine detection. Each sample detects 10000 cells and repeats for three times, and the data are analyzed by Analysis software for the ratio during the G0-G1, S and G2-M periods and the ratio of apoptotic cells.

[8] = tested on: HepG2 cells; experiment: Cell cycle and apoptosis by flow cytometry, HepG2; format: cell-based; details: HepG2, flow cytometry
[9] = tested on: NB4 cells; experiment: Cell cycle analysis by flow cytometer, NB4; format: cell-based; parameters: S %: dose or concentration left out as unconfirmed; details: 72 h
Procedure: (§4) Retinoic acid derivatives and fenretinide are prepared as a storage solution of 10 mg/mL by anhydrous ethanol and stored at […] and kept out of light.
(§5) NB4 cells and K562 cells are inoculated with an initial concentration of 2*10^5/ml in the RPMI1640 culture solution having 10% of calf serum (FBS), 100 u/ml of penicillin, 100 Lg/ml of streptomycin and 2 mmol/L of glutamine for suspension culture (37° C., 5% CO2). Change the solution every 2-3 days.
(§6) For the cells above acted by the retinoic acid derivatives and fenretinide ([…]) for 72 h, about 10^6 of them are collected, washed by PBS twice, fixed by 70% of cold ethanol over 24 h, washed by PBS twice, added with 5 ug/ml of propidium iodide for staining and detected by a flow cytometer from which the data are analyzed and processed by the multi-cycle software.

[10] = tested on: K562 cells; experiment: Cell cycle analysis by flow cytometer, K562; format: cell-based; parameters: S %: dose or concentration left out as unconfirmed; details: 72 h
Procedure: as §4, §5, §6

[11] = HepG2, MTT OD 570 nm, 1 ug/ml, 3 d, solvent not given
[12] = HepG2, MTT OD 570 nm, 5 ug/ml, 3 d, solvent not given
[13] = HepG2, MTT OD 570 nm, 10 ug/ml, 3 d, solvent not given
[14] = HepG2, MTT time gradient, 10 ug/ml, 1 d
[15] = HepG2, MTT time gradient, 10 ug/ml, 2 d
[16] = HepG2, MTT time gradient, 10 ug/ml, 3 d
[17] = HepG2, MTT time gradient, 10 ug/ml, 7 d
[18] = HepG2, MTT, 1 ug/ml, 3 d, solvent not given
[19] = HepG2, MTT, 5 ug/ml, 3 d, solvent not given
[20] = HepG2, MTT, 10 ug/ml, 3 d, solvent not given
[21] = HepG2, Table 5 repeat MTT, 10 ug/ml, 3 days, DMSO

Compound: CC1=C(/C=C/C(C)=C/C=C/C(C)=C/C(=O)O)C(C)(C)CCC1 [ATRA, all-trans retinoic acid]
- incidence rate of increased leukocyte count ([1]; during the treatment of APL, reported abroad): about 30%
- complete remission rate ([1]; human acute promyelocytic leukaemia, 5-year clinic summary): 86%

Compound: CC1=C(/C=C/C(C)=C/C=C/C(C)=C/C(=O)Nc2ccc(C(F)(F)F)cc2)C(C)(C)CCC1 [Example 3a-01, (4-trifluoromethylphenyl)-(all-trans)-3,7-dimethyl-9-(2,6,6-trimethyl-1-cyclohexen-1-yl)-2,4,6,8-nonatetraenoic acid amide]
- OD Value (x ± s) ([2]; 1 d): 0.680 ± 0.055
- Inhibition Rate ([2]; 1 d): 0.258
- OD Value (x ± s) ([2]; 2 d): 1.042 ± 0.046
- Inhibition Rate ([2]; 2 d): 0.288
- OD Value (x ± s) ([2]; 3 d): 0.623 ± 0.006
- Inhibition Rate ([2]; 3 d): 0.328
- OD Value (x ± s) ([2]; 7 d): 1.325 ± 0.028
- Inhibition Rate ([2]; 7 d): 0.361
- OD Value (x ± s) [3, 11]: 1.13 ± 0.16
- OD Value (x ± s) [3, 12]: 1.13 ± 0.45
- OD Value (x ± s) [3, 13]: 0.86 ± 0.13
- OD Value (x ± s) [3, 14]: 1.52 ± 0.13
- Inhibition Rate [3, 14]: 0.12
- OD Value (x ± s) [3, 15]: 0.71 ± 0.02
- Inhibition Rate [3, 15]: 0.42
- OD Value (x ± s) [3, 16]: 0.77 ± 0.03
- Inhibition Rate [3, 16]: 0.54
- OD Value (x ± s) [3, 17]: 0.30 ± 0.08
- Inhibition Rate [3, 17]: 0.77
- Inhibition Rate [3, 18]: 0.33
- Inhibition Rate [3, 19]: 0.33
- Inhibition Rate [3, 20]: 0.49
- OD Value (x ± s) [3, 21]: 0.978 ± 0.072
- Inhibition Rate [3, 21]: 0.548*
- CEA [4]: 2.9 µg/L
- effects on AFP secretory volume (statistics, in words) [5]: meaningful in statistics
- AFP [5]: 13.6* ug/L
- γ-GT [6]: 52.3 ± 1.5 U/L
- Apoptosis Rate (%) [7]: 17.6%
- G0-G1 (%) [7]: 55.6%
- G2-M (%) [7]: 2.41%
- S % [7]: 24.9%
- Apoptosis Rate (%) [8]: 16.5* %
- G0-G1 (%) [8]: 56.3%
- G2-M (%) [8]: 4.14%
- S % [8]: 24.8%

Compound: CC1=C(/C=C/C(C)=C/C=C/C(C)=C/C(=O)Nc2ccc(OC(F)(F)F)cc2)C(C)(C)CCC1 [Example 6a-01, (4-trifluoromethoxyphenyl)-(all-trans)-3,7-dimethyl-9-(2,6,6-trimethyl-1-cyclohexen-1-yl)-2,4,6,8-nonatetraenoic acid amide]
- OD Value (x ± s) ([2]; 1 d): 0.646 ± 0.019
- Inhibition Rate ([2]; 1 d): 0.296
- OD Value (x ± s) ([2]; 2 d): 0.909 ± 0.065
- Inhibition Rate ([2]; 2 d): 0.378
- OD Value (x ± s) ([2]; 3 d): 0.567 ± 0.057
- Inhibition Rate ([2]; 3 d): 0.389
- OD Value (x ± s) ([2]; 7 d): 1.243 ± 0.024
- Inhibition Rate ([2]; 7 d): 0.401
- OD Value (x ± s) [3, 11]: 0.97 ± 0.29
- OD Value (x ± s) [3, 12]: 0.89 ± 0.14
- OD Value (x ± s) [3, 13]: 0.89 ± 0.30
- OD Value (x ± s) [3, 14]: 1.28 ± 0.07
- Inhibition Rate [3, 14]: 0.06
- OD Value (x ± s) [3, 15]: 1.55 ± 0.11
- Inhibition Rate [3, 15]: 0.10
- OD Value (x ± s) [3, 16]: 1.24 ± 0.18
- Inhibition Rate [3, 16]: 0.26
- OD Value (x ± s) [3, 17]: 0.62 ± 0.13
- Inhibition Rate [3, 17]: 0.50
- Inhibition Rate [3, 18]: 0.42
- Inhibition Rate [3, 19]: 0.47
- Inhibition Rate [3, 20]: 0.47
- OD Value (x ± s) [3, 21]: 1.163 ± 0.102
- Inhibition Rate [3, 21]: 0.463*
- CEA [4]: 2.9 µg/L
- effects on AFP secretory volume (statistics, in words) [5]: meaningful in statistics
- AFP [5]: 13.6* ug/L
- γ-GT [6]: 58.0 ± 1.5 U/L
- Apoptosis Rate (%) [7]: 30.5%
- G0-G1 (%) [7]: 40.1%
- G2-M (%) [7]: 2.34%
- S % [7]: 27.9%
- Apoptosis Rate (%) [8]: 11.1%
- G0-G1 (%) [8]: 57.4%
- G2-M (%) [8]: 5.30%
- S % [8]: 26.7%
- G1 % [9]: 38.24%
- G2 % [9]: 2.70%
- S % [9]: 59.06%
- G1 % [10]: 34.2%
- G2 % [10]: 9.4%
- S % [10]: 56.4%
